Laboratory results as given in patent US11124516B2, “Pyrrolo[1,2-A]pyrimidinyl carboxamide compounds and their use in the treatment of medical disorders” (Bial—Biotech Investments, Inc., priority 2016, dated 2021).
In brackets after ≈: the same amount, converted by molar mass.

What was measured:
[1] = biological target: T1, glucocerebrosidase (Gcase) (Homo sapiens, UniProt P04062); assay: Glucocerebrosidase (Gcase) activation assay, 4-methylumbelliferyl-beta-D-glucopyranoside substrate, fluorescence; assay type: biochemical; settings: 10 nM GCase, 100 nM saposin C; for activation at 0.1 µM / activation at 1 µM: 0.25 h; for activation at 0.1 µM: pH 4.7, test compound at 0.1 μM, read-out: Percent Gcase Activation 0.1 μM Test Compound; for activation at 1 µM: pH 4.7, test compound at 1.0 μM, read-out: Percent Gcase Activation 1 μM Test Compound
T1 sequence (P04062 40-536): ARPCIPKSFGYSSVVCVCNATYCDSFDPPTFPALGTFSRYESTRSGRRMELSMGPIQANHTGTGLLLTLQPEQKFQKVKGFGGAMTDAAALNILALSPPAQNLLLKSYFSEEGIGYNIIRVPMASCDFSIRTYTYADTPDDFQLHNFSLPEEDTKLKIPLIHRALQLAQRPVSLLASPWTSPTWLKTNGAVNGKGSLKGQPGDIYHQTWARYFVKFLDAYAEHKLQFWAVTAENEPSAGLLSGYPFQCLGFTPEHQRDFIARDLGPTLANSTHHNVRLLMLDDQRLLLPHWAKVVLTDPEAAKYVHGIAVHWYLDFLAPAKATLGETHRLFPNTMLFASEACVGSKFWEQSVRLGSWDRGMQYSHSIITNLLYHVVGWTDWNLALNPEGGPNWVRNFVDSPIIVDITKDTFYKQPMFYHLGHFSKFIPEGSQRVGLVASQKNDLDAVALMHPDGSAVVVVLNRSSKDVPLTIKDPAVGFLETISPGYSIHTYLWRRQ
Procedure: The ability of exemplary compounds to activate glucocerebrosidase (Gcase) was measured.
A 484 μL aliquot of a 1.0 mg/mL solution of phosphatidylserine (PS) (Sigma P7769) in chloroform was evaporated under a stream of nitrogen for 1 hour. The lipid film was dissolved over 4 minutes of vigorous vortexing in 40 mL of 176 mM K2HPO4/50 mM citric acid (pH 4.7) containing 7.5 μL of triton X-100, resulting in a mixed micellar preparation with a composition of 0.32 mM triton and 0.37 mol % PS. 4-Methylumbelliferyl-beta-D-glucopyranoside (ACROS-337025000) was dissolved in the micellar solution to a final concentration of 2 mM for use as the reaction substrate.
Test compounds were diluted to the desired concentrations with dimethylsulfoxide (DMSO) from 10 mM stocks, and 0.41 μL of the DMSO compound mixture was added to 100 μL of micellar solution containing 10 nM GCase and 100 nM saposin C (Enzo ALX-201-262-C050). Pre-incubation was allowed to occur for 30 minutes at room temperature, after which the reaction was initiated by combining 25 μL of substrate solution with 25 μL of compound/GCase/saposin mixture. The reaction proceeded for 15 minutes at room temperature and was stopped by adding 150 μL of 1M glycine, pH 12.5. The endpoint of the reaction was monitored by measuring fluorescence intensity (excitation: 365 nm; emission: 440 nm) on a SpectraMax i3 instrument (Molecular Devices). Test compounds were screened at 1.0 and 0.1 μM final concentration, and subsequent 8-point dose response curves were obtained using 3-fold dilutions from a maximum final concentration of 5 μM.
For experiments in which the test compound was used at a concentration of 1.0 μM, the symbol “+” indicates less than 30% Gcase activation; the symbol “++” indicates Gcase activation in the range of 30% up to 60%; and the symbol “+++” indicates Gcase activation greater than 60%. For experiments in which the test compound was used at a concentration of 0.1 μM, the symbol “*” indicates less than 10% Gcase activation; the symbol “**” indicates Gcase activation in the range of 10% up to 20%; and the symbol “***” indicates greater than 20% Gcase activation.

[2] = Compound solubility in water; assay type: physicochemical

SMILES	activation at 0.1 µM [1]	activation at 1 µM [1]	solubility [2]	Percent Gcase Activation 0.1 μM Test Compound ([1]; test compound at 0.1 μM, pH 4.7)	Percent Gcase Activation 1 μM Test Compound ([1]; test compound at 1.0 μM, pH 4.7)
CCOc1ccccc1C(C)NC(=O)c1ccn2c(C)cc(C)nc12 (stereo not drawn) [IV-78]	> 20%	> 60%	2.1 µg/mL (≈ 6.22 µM)	–	–
COc1ccc(C(C)NC(=O)c2ccn3c(C)cc(C)nc23)cc1F (stereo not drawn) [IV-61]	> 20%	> 60%	1.9 µg/mL (≈ 5.57 µM)	–	–
Cc1cc(C)n2ccc(C(=O)NC(CC3CCC3)c3ccccc3)c2n1 (stereo not drawn) [IV-41]	> 20%	> 60%	0.5 µg/mL (≈ 1.44 µM)	–	–
CNc1cc(C)n2ccc(C(=O)NC(C)(C)C3CC3)c2n1 [III-10]	> 20%	> 60%	11 µg/mL (≈ 38.4 µM)	–	–
CCCO[C@H]1CC[C@H](NC(=O)c2ccn3c(C)cc(C(F)F)nc23)CC1 [IV-12]	10 to 20%	> 60%	18.5 µg/mL (≈ 50.6 µM)	–	–
Cc1cc(C(F)F)n2ccc(C(=O)N[C@H]3CC[C@H](OCC(C)C)CC3)c2n1 [IV-9]	> 20%	> 60%	1.5 µg/mL (≈ 3.95 µM)	–	–
Cc1cc(C)n2ccc(C(=O)NC(C)(C)c3ccccc3Cl)c2n1 [IV-22]	10 to 20%	> 60%	1.3 µg/mL (≈ 3.8 µM)	–	–
CCCCO[C@H]1CC[C@H](NC(=O)c2ccn3c(C)cc(N4CCOCC4)nc23)CC1 [IV-15]	10 to 20%	> 60%	8.4 µg/mL (≈ 20.3 µM)	–	–
COc1cc(C)n2ccc(C(=O)NC(C)(C)C3CC3)c2n1 [III-13]	10 to 20%	> 60%	11.5 µg/mL (≈ 40 µM)	–	–
Cc1cc(C)n2ccc(C(=O)NC(C)c3ccc4ccccc4c3)c2n1 (stereo not drawn) [IV-31]	> 20%	> 60%	0.2 µg/mL (≈ 0.582 µM)	–	–
Cc1cc(C)n2ccc(C(=O)NC(C)(C)C3CC3)c2n1 [III-23]	> 20%	> 60%	18.7 µg/mL (≈ 68.9 µM)	–	–
Cc1cc(C(F)F)nc2c(C(=O)N[C@@H](C)C3CC3)ccn12 [III-7]	> 20%	> 60%	9.5 µg/mL (≈ 32.4 µM)	–	–
COCc1cc(C)n2ccc(C(=O)NC(C)(C)C3CC3)c2n1 [III-15]	10 to 20%	> 60%	21.9 µg/mL (≈ 72.7 µM)	–	–
Cc1nc2c(C(=O)NC(C)(C)C3CC3)ccn2c2c1CCC2 [III-72]	< 10%	> 60%	1.5 µg/mL (≈ 5.04 µM)	–	–
Cc1cccc(C2CC2C(C)NC(=O)c2ccn3c(C)cc(C)nc23)c1 (stereo not drawn) [IV-42]	> 20%	> 60%	1.1 µg/mL (≈ 3.17 µM)	–	–
Cc1cc(-c2cccnc2)nc2c(C(=O)NC(C3CC3)C(F)(F)F)ccn12 (stereo not drawn) [III-55]	> 20%	> 60%	2.9 µg/mL (≈ 7.75 µM)	–	–
Cc1cc(-c2cccnc2)nc2c(C(=O)N[C@H]3CC[C@H](OCC(C)C)CC3)ccn12 [III-58]	> 20%	> 60%	1.9 µg/mL (≈ 4.67 µM)	–	–
CCC(NC(=O)c1ccn2c(C)cc(C)nc12)c1ccc(F)cc1 (stereo not drawn) [IV-56]	> 20%	> 60%	2 µg/mL (≈ 6.15 µM)	–	–

SMILES	activation at 0.1 µM [1]	activation at 1 µM [1]	solubility [2]	Percent Gcase Activation 0.1 μM Test Compound ([1]; test compound at 0.1 μM, pH 4.7)	Percent Gcase Activation 1 μM Test Compound ([1]; test compound at 1.0 μM, pH 4.7)
CO[C@H]1CC[C@H](NC(=O)c2ccn3c(C)cc(-c4ccc(F)cc4)nc23)CC1 [III-48]	10 to 20%	> 60%	0.9 µg/mL (≈ 2.36 µM)	–	–
COc1cccc([C@H](C)NC(=O)c2ccn3c(C)cc(C)nc23)c1 [IV-33]	10 to 20%	> 60%	9.4 µg/mL (≈ 29.1 µM)	–	–
Cc1cc(C(F)F)nc2c(C(=O)N[C@H]3CC[C@H](OCC(C)C)CC3)ccn12 [IV-13]	> 20%	> 60%	5 µg/mL (≈ 13.2 µM)	–	–
Cc1cc(C)n2ccc(C(=O)NC(=O)C3CC3)c2n1 [III-74]	< 10%	< 30%	24.8 µg/mL (≈ 96.4 µM)	–	–
CCCO[C@H]1CC[C@H](NC(=O)c2ccn3c(C(F)F)cc(C)nc23)CC1 [IV-11]	> 20%	> 60%	9 µg/mL (≈ 24.6 µM)	–	–
COCC(NC(=O)c1ccn2c(C)cc(C)nc12)c1ccccc1 (stereo not drawn) [III-20]	< 10%	> 60%	13.7 µg/mL (≈ 42.4 µM)	–	–
Cc1cc(-c2cccc(C(N)=O)c2)nc2c(C(=O)NC(C3CC3)C(F)(F)F)ccn12 (stereo not drawn) [IV-7]	> 20%	> 60%	0.4 µg/mL (≈ 0.961 µM)	–	–
Cc1cc(C)n2ccc(C(=O)NC(C)(C)c3cccc(Cl)c3)c2n1 [IV-40]	–	–	1.5 µg/mL (≈ 4.39 µM)	** (Gcase activation in the range of 10% up to 20%)	+++ (Gcase activation greater than 60%)
CCC(NC(=O)c1ccn2c(C)cc(C)nc12)c1ccc(Cl)cc1 (stereo not drawn) [IV-59]	> 20%	> 60%	0.8 µg/mL (≈ 2.34 µM)	–	–
Cc1cc(C(F)F)n2ccc(C(=O)N[C@H]3CC[C@H](OC(C)(C)C)CC3)c2n1 [IV-8]	10 to 20%	> 60%	0.9 µg/mL (≈ 2.37 µM)	–	–
COC1CCC(Nc2cc(C)n3ccc(C(=O)NC(C)(C)C4CC4)c3n2)CC1 (stereo not drawn) [II1-37]	< 10%	30 to 60%	10.2 µg/mL (≈ 26.5 µM)	–	–
Cc1cc(C)n2ccc(C(=O)NC3(c4ccccc4)CC3)c2n1 [III-18]	10 to 20%	> 60%	7.7 µg/mL (≈ 25.2 µM)	–	–
Cc1cc(C)n2ccc(C(=O)NC(C)C3CCCCC3)c2n1 (stereo not drawn) [III-62]	> 20%	> 60%	5.1 µg/mL (≈ 17 µM)	–	–
Cc1cc(C)n2ccc(C(=O)NC3(c4ccc(F)cc4)CCOCC3)c2n1 [III-29]	< 10%	30 to 60%	2.4 µg/mL (≈ 6.53 µM)	–	–
Cc1cc(C)n2ccc(C(=O)NC(C)c3cccc4c3OCCCO4)c2n1 (stereo not drawn) [IV-53]	10 to 20%	> 60%	5.1 µg/mL (≈ 14 µM)	–	–
Cc1cc(C)n2ccc(C(=O)NC(C)(C)CC3CC3)c2n1 [III-19]	> 20%	> 60%	14.7 µg/mL (≈ 51.5 µM)	–	–
Cc1cc(C)n2ccc(C(=O)N[C@@H](C)c3ccc(Cl)cc3)c2n1 [IV-46]	> 20%	> 60%	0.4 µg/mL (≈ 1.22 µM)	–	–
Cc1cc(F)nc2c(C(=O)NC(C)(C)C3CC3)ccn12 [III-17]	10 to 20%	> 60%	6.3 µg/mL (≈ 22.9 µM)	–	–
